Assay results reported in patent US20240400620A1, “Compositions Containing Coronavirus Proteins and Epitopes” (priority 2021, published 2024).

Test system: activated CD4+ T cells from MA10-infected HLA-DRB1*0101 Ifnar1^−/− mice
Type: cell-based

Sequence | frequency of IFNγ-producing activated CD4+ T cells compared with unstimulated control cells | expansion of multifunctional IFNγ+/TNF+ CD4+ T cells
LNTLVKQLSSNFGAI [S959-973] | increase was significant | –
VLSFELLHAPATVCG [S512-526] | – | capable of expanding
RWYFYYLGTGPEAGL (misc_feature - Nucleoprotein; Severe acute respiratory syndrome-related coronavirus) [N107-121] | increase was significant | –
GTWLTYTGAIKLDDK (misc_feature - Nucleoprotein; Severe acute respiratory syndrome-related coronavirus) [N328-342] | – | capable of expanding
TSNFRVQPTESIVRF [S315-329] | – | capable of expanding
